For experiment [1], the system named is bacteria. The experiment in a line: Determination of sensitivity of bacteria (Table 9). In kind it is cell-based. The following applies: product at 30 ppm (column 12; columns 11-14 also Free Bacter 3 ppm, Prevent 5 and 3 ppm). The method, then: (§1) The purpose was to determine the antimicrobial action of a combination of cashew nut liquid and ricinoleic acid, and the effects on yeast (Saccharomyces cerevisiae) during alcoholic fermentation, response to different dosages and under acidic conditions. The items below were evaluated: • Laboratory fermentation with Saccharomyces cerevisiae by evaluating the feasibility and growth of yeast, in addition to bacteria developed at different concentrations of the products and mixtures; • Evaluation of the deflocculation power of yeast in fermentations at several dosages of the products and mixtures; • Evaluation of different dosages in the test for Sensitivity of Bacteria to define the quantity of products and mixtures to be recommended in the fermentation process by comparing them to other antibiotics previously tested and approved being used in the current market; • Identification of the characteristics of products and mixtures during the handling; • Evaluation of products and mixtures at low pH by simulating the conventional treatment of the yeast milk. The studies were based on the cause vs. effect methodology, using the observation of the growth of microorganisms as a parameter for responses. […]

Experiment [2] relates to bacteria. The experiment in a line: Determination of sensitivity of bacteria (Table 8). It counts as cell-based. The note with it: product at 50, 40, 30 ppm (columns 10-12). The method, then:
as §1

For experiment [3], the system named is Eimeria tenella, Eimeria maxima, and Eimeria acervulina. Briefly: Performance of chickens inoculated with Eimeria oocysts, first to 40th day of age (Example 2). In kind it is in vivo. The note with it: salinomycin 66 ppm, AC 1500 ppm, inoculated at 18th day. From the text: (§2) Seven hundred and twenty chickens were randomly distributed into four treatments with six repetitions each, with 30 animals in each repetition. The birds were placed in a conventional yard divided into boxes.
(§3) The four treatments were (1. Non-inoculated, without anticoccidial; 2. Inoculated without anticoccidial; 3. Inoculated-salinomycin (66 ppm); 4. inoculated-AC (1500 ppm)). The birds were inoculated at the 18th day of age with 0.5 liter of inocula containing 10,000, 9,000, and 8,000 sporulated oocysts of Eimeria tenella, Eimeria maxima, and Eimeria acervulina, respectively. This solution was mixed with the feed and offered to each group of 30 birds. At the 24th day of age, the degree of intestinal lesion was evaluated (0—no lesion, 4—maximum lesion). The AC composition was 12% castor oil, 40% cashew nut liquid, and 48% carrier.
(§4) The experimental design utilized seven hundred and twenty chickens which were randomly distributed into four treatments and six repetitions. The averages were compared using the SNK test (Student-Newman-Keuls).

A further experiment deals with E. maxima. Briefly: Degree of intestinal lesion in inoculated chickens, E. maxima (Example 2). In kind it is in vivo. The following applies: 24th day of age; 0 no lesion, 4 maximum lesion; salinomycin 66 ppm, AC 1500 ppm.
Text: as §2, §3, §4

The subject of the next experiment is E. tenella. The experiment in a line: Degree of intestinal lesion in inoculated chickens, E. tenella (Example 2). In kind it is in vivo. The note with it: 24th day of age; 0 no lesion, 4 maximum lesion; salinomycin 66 ppm, AC 1500 ppm.
Text: as §2, §3, §4

The subject of the next experiment is E. acervulina. The experiment in a line: Degree of intestinal lesion in inoculated chickens, E. acervulina (Example 2). It counts as in vivo. The note with it: 24th day of age; 0 no lesion, 4 maximum lesion; salinomycin 66 ppm, AC 1500 ppm.
Text: as §2, §3, §4

The results in this text go back to US8377485B2, “Antimicrobial composition and use thereof” (Oligo Basics Industria e Comercio de Racao Ltda, priority 2007, dated 2013).

Consider `CCCCCC[C@@H](O)C/C=C\CCCCCCCC(=O)O` [Product P2, Ricinoleic Acid], for which the “Performance in sensitivity of bacteria test” value in the experiment on bacteria [1] and in the experiment with bacteria [2] was “negative results” in each case.

Take `CC[C@@H](C(=O)[C@@H](C)[C@@H](O)[C@H](C)[C@@H]1O[C@@H]([C@@H](CC)C(=O)O)CC[C@@H]1C)[C@H]1O[C@]2(C=C[C@@H](O)[C@]3(CC[C@@](C)([C@H]4CC[C@](O)(CC)[C@H](C)O4)O3)O2)[C@H](C)C[C@@H]1C` [salinomycin]: the Final weight in experiment [3] (40th day of age) amounted to 2305 b g. In experiment [3] (first to 40th day of age), this compound gave an Alimentary conversion of 1.78 a, an Ingestion of 4018 bc g, a Viability of 97.5 a and a Weight gain of 2261 b g. For the same compound, the “Degree of intestinal lesion, E. maxima” value in the experiment with E. maxima worked out at 0.72 a. Further, the “Degree of intestinal lesion, E. tenella” value in the experiment with E. tenella amounted to 1.61 a. In addition, the “Degree of intestinal lesion, E. acervulina” value in the experiment with E. acervulina is 0.72 b.
